The results in this text go back to patent US20130079345A1, “[…] ACTIVE DISUBSTITUTED TRIAZINE DERIVATIVES” (BAYER INTELLECTUAL PROPERTY GMBH, priority 2010, published 2013).

The structures appear in SMILES notation. Structures can show the parent of a compound that is named as a salt.

The target of one test is T1, CDK2/CycE (Homo sapiens, UniProt P24941).
T1 construct: GST; purchased ProQinase GmbH (Freiburg, Germany); host or cells: insect cells (Sf-9)
Description: CDK2/CycE kinase assay (TR-FRET). The following applies: ATP 10 μM. It counts as biochemical. The source says: CDK2/CycE-inhibitory activity of compounds of the present invention was quantified employing the CDK2/CycE TR-FRET assay as described in the following paragraphs.
Recombinant fusion proteins of glutathione S-transferase (GST) and human CDK2 and of GST and human CycE, expressed in insect cells (Sf-9) and purified by glutathion-sepharose affinity chromatography, were purchased from ProQinase GmbH (Freiburg, Germany). A biotinylated peptide biotin-Ttds-[…] (C-terminus in amide form), which can be purchased from e.g the company JERINI Peptide Technologies (Berlin, Germany), was used as a substrate for the kinase reaction.
For the assay, 50 nl of a 100-fold concentrated solution of the test compound in DMSO was pipetted into a well of a black low-volume 384-well microtiter plate (Greiner Bio-One, Frickenhausen, Germany), 2 μl of a solution of CDK2/CycE in aqueous assay buffer [50 mM Tris/HCl pH 8.0], 10 mM MgCl2, 1.0 mM dithiothreitol, 0.1 mM sodium ortho-vanadate, 0.01% (v/v) Nonidet-P40 (Sigma)] were added. The mixture was incubated at 22° C. for 15 min to allow pre-binding of the test compounds to the enzyme before the start of the kinase reaction. […] The resulting mixture was incubated at 22° C. for 25 minutes. The concentration of CDK2/CycE was adjusted depending on the activity of the enzyme lot and was chosen appropriately for measurements in the linear range of the assay. Typical concentrations were in the range of 130 ng/ml. The reaction was stopped by the addition of 5 μl of a solution of TR-FRET detection reagents (0.2 μM streptavidine-XL and 1 nM anti-RB(pSer807/pSer811)-antibody from BD Pharmingen [#558389] and 1.2 nM LANCE EU-W1024 labeled anti-mouse IgG antibody [Perkin-Elmer, product no. AD0077]) in an aqueous EDTA-solution (100 mM EDTA, 0.2% (w/v) bovine serum albumin in 100 mM HEPES/NaOH, pH 7.0).
The resulting mixture was incubated at 22° C. for one hour to allow the formation of a complex between the phosphorylated biotinylated peptide and the detection reagents. Subsequently, the amount of phosphorylated substrate was evaluated by measuring the resonance energy transfer from the Eu-chelate to the streptavidine-XL. Therefore, the fluorescence emissions at 620 nm and 665 nm after excitation at 350 nm were measured in a high time-resolved fluorometry (HTRF) reader, e.g. a Rubystar (BMG Labtechnologies, Offenburg, Germany) or a Viewlux (Perkin-Elmer). The ratio of the emissions at 665 nm and at […] was taken as a measure for the amounts of phosphorylated substrate. The data were normalised, i.e. enzyme reaction without inhibitor corresponds to 0% inhibition, and all other assay components in the absence of the enzyme correspond to 100% inhibition. IC50 values were calculated by a 4-parameter fit using in-house software.

The test system of another test is HeLa cells. Description: Cell viability, HeLa cells. The following applies: Homo sapiens. It is filed as cell-based. How it is done:
HeLa- or MDAMB468-Cells or MATU ADR, H460, DU145, CACO-2 or B16F10 cells were maintained in RPMI 1640 or McCoy's 5A cell culture medium+glutamine (PAN Biotech GmbH, Aidenbach, Germany; order no. P04-22100; P04-05500) supplemented with 10% fetal calf serum “Gold” (PAA Laboratories GmbH, Pasching, Austria; order no. A15-151) and grown at 37° C., 5% CO2. For the cell viability assay, cells were seeded with a density of 400 (Hela cells, DSMZ Braunschweig order no. ACC57) or 800 (MDAMB468 cells, ATCC order no. HTB-132) per well in 25 μL in 384-well plates (Greiner Bio-One, Frickenhausen, Germany; order no. 781080). After overnight incubation at 37° C./5% CO2, 25 nL or 75 nL compound were added to each sample well by using BIOMEK FXP Laboratory Automation Workstation (Beckman Coulter, USA). Wells with cells and 0.1% or 0.3% DMSO in culture medium were used as positive controls, wells with cells and 10 μM staurosporine in culture medium were used as negative controls. The cells were incubated with the compounds for 72 h at 37° C./5% CO2. For measurement of cell viability […] Cell Titer Glo reagent (Promega, Madison, USA; order no. G7573), 1:2 diluted with cell culture medium, was added to each well. The 384well-plates were placed for 2 min on an orbital microplate shaker and incubated for further 10 min at room temperature to stabilize the luminescence signal. Luminescence was measured by Envision Plate Reader (Perkin Elmer, USA). EC50 values were calculated with the software Excel Fit (IDBS, Guildford, UK) from 3-fold dilution series comprising at least 8 concentrations in duplicates.
Cultivated tumour cells (NCl-H460, human non-small cell lung carcinoma cells, ATCC HTB-177; DU 145, hormone-independent human prostate carcinoma cells, ATCC HTB-81; HeLa-MaTu, human cervical carcinoma cells, EPO-GmbH, Berlin; HeLa-MaTu-ADR, multidrug-resistant human cervical carcinoma cells, EPO-GmbH, Berlin; HeLa human cervical tumour cells, ATCC CCL-2; Caco-2 human colorectal carcinoma, ATCC HTB-37; B16F10 mouse melanoma cells, ATCC CRL-6475) were plated at a density of 5,000 cells/well (DU145, HeLa-MaTu-ADR), 3,000 cells/well (NCl-H460, HeLa-MaTu, HeLa), 1,500 cells/well (Caco-2), or 1,000 cells/well (B16F10) in a 96-well multititer plate in 200 μL of their respective growth medium supplemented with 10% fetal calf serum. After 24 hours, the cells of one plate (zero-point plate) were stained with crystal violet (see below), while the medium of the other plates was replaced by fresh culture medium (200 μl), to which the test substances were added in various concentrations (0 μM as well as in the range of 0.001 to 10 μM; the final concentration of the solvent dimethyl sulfoxide was 0.5%). The cells were incubated in the presence of test substances for 4 days. Cell proliferation was determined by staining the cells with crystal violet: The cells were fixed by adding 20 μl/measuring point of an 11% glutaric aldehyde solution at room temperature for 15 minutes. After three washing cycles of the fixed cells with water, the plates were dried at room temperature. The cells were stained by adding 100 μl/measuring point of a 0.1% crystal violet solution (pH 3.0). After three washing cycles of the stained cells with water, the plates were dried at room temperature. The dye was dissolved by adding 100 μl/measuring point of a 10% acetic acid solution. The extinction was determined by photometry at a wavelength of 595 nm. The change of cell number, in percent, was calculated by normalization of the measured values to the extinction values of the zero-point plate (equivalent to 0%) and the extinction of the untreated (0 μm) cells (equivalent to 100%). The IC50 values were determined by means of a 4 parameter fit using the company's own software.

By IC50 is commonly meant the concentration that inhibits the measured activity by half. `COc1cc(F)ccc1-c1ncnc(Nc2cccc(CS(N)(=O)=O)c2)n1` [B2′, 1-(3-{[4-(4-fluoro-2-methoxyphenyl)-1,3,5-triazin-2-yl]amino}phenyl)methanesulfonamide hydrochloride] gave an IC50 on CDK2/CycE (values in nM) of 670 nM.

For the molecule `CC(C)Oc1cc(F)ccc1-c1ncnc(Nc2cccc(CS(N)(=O)=O)c2)n1` [Compound U2, 1-[3-({4-[4-fluoro-2-(propan-2-yloxy)phenyl]-1,3,5-triazin-2-yl}amino)phenyl]methanesulfonamide], the IC50 came out at 2.7 µM in the test on HeLa cells and 880 nM at CDK2/CycE (values in nM). Regarding `COc1ccccc1-c1ncnc(Nc2cccc(S(N)(=O)=O)c2)n1` [C1′, 3-[(4-(2-Methoxyphenyl)-1,3,5-triazin-2-yl)amino]benzenesulfonamide trifluoroacetic acid salt], in the test on HeLa cells, the IC50 came out at 1 µM.

For `N#Cc1cc(F)ccc1-c1ncnc(Nc2cccc(CS(N)(=O)=O)c2)n1` [Compound U3, 1-(3-{[4-(2-cyano-4-fluorophenyl)-1,3,5-triazin-2-yl]amino}phenyl)methanesulfonamide], the IC50 with HeLa cells was determined as 10 µM; on CDK2/CycE (values given in μM), 14000 nM.

Molecule `NS(=O)(=O)Cc1cccc(Nc2ncnc(-c3ccccc3Oc3ccccc3)n2)c1` [Compound B14, 1-(3-{[4-(2-phenoxyphenyl)-1,3,5-triazin-2-yl]amino}phenyl)methanesulfonamide] returned an IC50 against CDK2/CycE (values given in μM) of 4000 nM. Consider `CNS(=O)(=O)Cc1cccc(Nc2cc(-c3ccccc3OC)ncn2)c1` [Ref2, C-{3-[6-(2-Methoxy-phenyl)-pyrimidin-4-ylamino]-phenyl}-N-methyl methanesulfonamide, reference compound], for which the IC50 in the test with HeLa cells stood at 4.6 µM; at CDK2/CycE (values given in μM), 1600 nM. Consider `COc1ccccc1-c1ncnc(Nc2cccc(CS(N)(=O)=O)c2)n1` [B1′, 3-[(4-(2-Methoxyphenyl)-1,3,5-triazin-2-yl)amino]benzenemethanesulfonamide trifluoroacetic acid salt], for which, in the test with HeLa cells, the IC50 was 3.2 µM. With `COc1ccccc1-c1ncnc(Nc2cccc(CS(N)(=O)=O)c2)n1` [Compound B1, 3-[(4-(2-Methoxyphenyl)-1,3,5-triazin-2-yl)amino]benzenemethanesulfonamide], the IC50 on CDK2/CycE (values given in μM) came to 1800 nM. `COc1ccccc1-c1cc(Nc2cccc(CS(=O)(=O)N(C)C)c2)ncn1` [Ref4, C-{3-[6-(2-Methoxy-phenyl)-pyrimidin-4-ylamino]-phenyl}-N,N-dimethylmethanesulfonamide, reference compound]: the IC50 was 6.1 µM with HeLa cells and 2700 nM against CDK2/CycE (values given in μM). Molecule `NS(=O)(=O)Cc1cccc(Nc2ncnc(-c3ccccc3OCc3ccccc3)n2)c1` [Compound B13, 3-[(4-(2-Benzyloxyphenyl)-1,3,5-triazin-2-yl)amino]benzenemethanesulfonamide] yielded an IC50 against CDK2/CycE (values in nM) of 380 nM. As for `COc1cc(F)ccc1-c1ncnc(Nc2cccc(CS(N)(=O)=O)c2)n1` [Compound B2, 3-[(4-(4-Fluoro-2-methoxyphenyl)-1,3,5-triazin-2-yl)amino]benzenemethanesulfonamide], the IC50 in the test on HeLa cells is 1 µM; at CDK2/CycE (values in nM), 930 nM. Take `COc1cc(F)c(F)cc1-c1ncnc(Nc2cccc(CS(N)(=O)=O)c2)n1` [Compound U7, 1-(3-{[4-(4,5-difluoro-2-methoxyphenyl)-1,3,5-triazin-2-yl]amino}phenyl)methanesulfonamide]: the half-maximal inhibitory concentration (IC50) in the test with HeLa cells is 1.2 µM; on CDK2/CycE (values in nM), 930 nM.

Molecule `NS(=O)(=O)Cc1cccc(Nc2ncnc(-c3ccccc3OCc3ccccc3)n2)c1` [B13′, 3-[(4-(2-Benzyloxyphenyl)-1,3,5-triazin-2-yl)amino]benzenemethanesulfonamide trifluoroacetic acid salt] had an IC50 in the test with HeLa cells of 0.31 µM. Turning to `COc1cc(F)ccc1-c1ncnc(Nc2ccc(S(C)(=O)=O)nc2)n1` [Compound U8, 4-(4-fluoro-2-methoxyphenyl)-N-[6-(methylsulfonyl)pyridin-3-yl]-1,3,5-triazin-2-amine], the results for the 50% inhibitory concentration (IC50) with HeLa cells and on CDK2/CycE (values in nM) were 4.2 µM and 170 nM, respectively.
